Data: ChEMBL document CHEMBL2034904, “A new series of N5 derivatives of the 1,1,5-trimethyl furo[3,4-c]pyridine-3,4-dione (cerpegin) selectively inhibits the post-acid activity of mammalian 20S proteasomes” (Bioorg Med Chem Lett, 2012)
The source made the active and inactive calls. The rule behind the calls is not given here.

Legend:
[1] = target: Cathepsin B (Homo sapiens) (UniProt P07858); assay: Inhibition of cathepsin B from human hepatocytes using […] as substrate; details: Hepatocyte
[2] = Inhibition of caspase-like activity of 20S proteasome catalytic core from rabbit erythrocytes using Z-LLE-NA as substrate preincubated for 15 mins prior to substrate addition measured after 45 mins; parameters: species or system Oryctolagus cuniculus
Homo sapiens [3] = species: Homo sapiens; assay: Inhibition of calpain-1 from human erythrocytes using […] as substrate
Oryctolagus cuniculus [4] = species: Oryctolagus cuniculus; assay: Inhibition of trypsin-like activity of 20S proteasome catalytic core from rabbit erythrocytes using Boc-LRR-AMC as substrate at 100 uM preincubated for 15 mins prior to substrate addition measured after 45 mins
Oryctolagus cuniculus [5] = species: Oryctolagus cuniculus; assay: Inhibition of chymotrypsin-like activity of 20S proteasome catalytic core from rabbit erythrocytes using Suc-LLVY-AMC as substrate at 100 uM preincubated for 15 mins prior to substrate addition measured after 45 mins
Oryctolagus cuniculus [6] = species: Oryctolagus cuniculus; assay: Inhibition of caspase-like activity of 20S proteasome catalytic core from rabbit erythrocytes using Z-LLE-NA as substrate at 100 uM preincubated for 15 mins prior to substrate addition measured after 45 mins
[7] = (§1) Inhibition of chymotrypsin-like activity of 20S proteasome catalytic core from human erythrocytes using Suc-LLVY-AMC as substrate preincubated for 15 mins prior to substrate addition measured after 45 mins
[8] = Inhibition of caspase-like activity of 20S proteasome catalytic core from human erythrocytes using Z-LLE-NA as substrate preincubated for 15 mins prior to substrate addition measured after 45 mins
[9] = (§2) Inhibition of trypsin-like activity of 20S proteasome catalytic core from human erythrocytes using Boc-LRR-AMC as substrate preincubated for 15 mins prior to substrate addition measured after 45 mins
Oryctolagus cuniculus [10] = species: Oryctolagus cuniculus; assay: Irreversible inhibition of rabbit 20S proteasome chymotrypsin-like activity using […] as substrate at 10 to 50 uM from 5 to 60 mins
Oryctolagus cuniculus [11] = species: Oryctolagus cuniculus; assay: Inhibition of rabbit 20S proteasome chymotrypsin-like activity using […] as substrate at 10 to 50 uM; details: TDE = time-dependent effect
[12] = Inhibition of trypsin-like activity of 20S proteasome catalytic core from rabbit erythrocytes using Boc-LRR-AMC as substrate preincubated for 15 mins prior to substrate addition measured after 45 mins; parameters: species or system Oryctolagus cuniculus
[13] = Inhibition of chymotrypsin-like activity of 20S proteasome catalytic core from rabbit erythrocytes using Suc-LLVY-AMC as substrate preincubated for 15 mins prior to substrate addition measured after 45 mins; parameters: species or system Oryctolagus cuniculus
Homo sapiens [14] = species: Homo sapiens; assay: as §1
Homo sapiens [15] = species: Homo sapiens; assay: as §2
Homo sapiens [16] = species: Homo sapiens; assay: Inhibition of trypsin-like activity of 20S proteasome catalytic core from human erythrocytes using Boc-LRR-AMC as substrate at 100 uM preincubated for 15 mins prior to substrate addition measured after 45 mins

Structure (SMILES)	inhibition [1]	IC50 [2]	inhibition (Homo sapiens [3])	inhibition (Oryctolagus cuniculus [4])	inhibition (Oryctolagus cuniculus [5])	other results
CC1(C)OC(=O)c2c1ccn(NC(N)=S)c2=O	inactive	10.7 µM	inactive	–	–	IC50 [7]: 8.4 µM; IC50 [8]: 9.7 µM; IC50 [9]: 10.2 µM; inhibition (Oryctolagus cuniculus [10]): Active; inhibition (Oryctolagus cuniculus [11]): tde; IC50 [12]: 10.1 µM; IC50 [13]: 8 µM
CC1(C)OC(=O)c2c1ccn(CC(O)CN1CCOCC1)c2=O (stereo unspecified)	inactive	–	inactive	42.5%	inactive	inhibition (Oryctolagus cuniculus [6]): inactive
CC1(C)OC(=O)c2c1ccn(CC(O)CN1CCN(Cc3ccccc3)CC1)c2=O (stereo unspecified)	inactive	69.8 µM	inactive	inactive	inactive	–
CC1(C)OC(=O)c2c1ccn(CCO)c2=O	inactive	12.1 µM	inactive	inactive	inactive	–
CN(C)CCn1ccc2c(c1=O)C(=O)OC2(C)C	inactive	–	inactive	inactive	inactive	inhibition (Oryctolagus cuniculus [6]): 50%
CC1(C)OC(=O)c2c1ccn(Cc1ccncc1)c2=O	inactive	7 µM	inactive	inactive	inactive	inhibition (Homo sapiens [14]): inactive; IC50 [8]: 7.9 µM; inhibition (Homo sapiens [15]): inactive
Cn1ccc2c(c1=O)C(=O)OC2(C)C [CERPEGIN]	inactive	10.4 µM	inactive	inactive	inactive	–
CC1(C)OC(=O)c2c1ccn(Cc1cccc(C(F)(F)F)c1)c2=O	inactive	8.4 µM	inactive	inactive	inactive	–
CC1(C)OC(=O)c2c1ccn(CCc1ccc(O)cc1)c2=O	inactive	–	inactive	inactive	38.2%	inhibition (Oryctolagus cuniculus [6]): 21.7%
CC1(C)OC(=O)c2c1ccn(CCc1ccc(S(N)(=O)=O)cc1)c2=O	inactive	5.5 µM	inactive	inactive	inactive	–
CC1(C)OC(=O)c2c1ccn(CCc1ccccc1)c2=O	inactive	48.7 µM	inactive	22.6%	inactive	inhibition (Homo sapiens [14]): inactive; IC50 [8]: 45.7 µM; inhibition (Homo sapiens [16]): 25.3%
CC1(C)OC(=O)c2c1ccn(CC(O)COc1ccccc1)c2=O (stereo unspecified)	inactive	39.7 µM	inactive	33.3%	inactive	–
CC1(C)OC(=O)c2c1ccn(Cc1ccc(Cl)cc1Cl)c2=O	inactive	29.3 µM	inactive	inactive	inactive	–
CC1(C)OC(=O)c2c1ccn(CC(O)CO)c2=O (stereo unspecified)	inactive	4.9 µM	inactive	inactive	inactive	–

Now from value to compound, other results behind:

inhibition [1]	IC50 [2]	inhibition (Homo sapiens [3])	inhibition (Oryctolagus cuniculus [4])	inhibition (Oryctolagus cuniculus [5])	Structure (SMILES)	other results
inactive	7.1 µM	inactive	20%	21%	CC1(C)OC(=O)c2c1ccn(Cc1ccc(Cl)cc1)c2=O	–
inactive	5.2 µM	inactive	51.5%	inactive	CC1(C)OC(=O)c2c1ccn(CC(O)c1ccccc1)c2=O (stereo unspecified)	–
inactive	–	inactive	inactive	inactive	COc1ccc(CCn2ccc3c(c2=O)C(=O)OC3(C)C)cc1	inhibition (Oryctolagus cuniculus [6]): inactive
inactive	5.9 µM	inactive	inactive	inactive	C=CCOCC(O)Cn1ccc2c(c1=O)C(=O)OC2(C)C (stereo unspecified)	–
inactive	20.1 µM	inactive	50%	inactive	CC1(C)OC(=O)c2c1ccn(CCc1ccc(Cl)cc1)c2=O	–
inactive	76.8 µM	inactive	inactive	inactive	CC1(C)OC(=O)c2c1ccn(CCCn1ccnc1)c2=O	–
inactive	–	inactive	inactive	inactive	CC1(C)OC(=O)c2c1ccn(CCc1c[nH]c3ccccc13)c2=O	inhibition (Oryctolagus cuniculus [6]): 23.7%
inactive	39.8 µM	inactive	inactive	inactive	CC1(C)OC(=O)c2c1ccn(CCc1ccc(F)cc1)c2=O	–
inactive	13.3 µM	inactive	inactive	inactive	CCOC(=O)Cn1ccc2c(c1=O)C(=O)OC2(C)C	–
inactive	11.4 µM	inactive	inactive	inactive	CC1(C)OC(=O)c2c1ccn(CCCN1CCCC1)c2=O	–
inactive	4.9 µM	inactive	40%	inactive	CC1(C)OC(=O)c2c1ccn(CCc1ccccc1Cl)c2=O	–
inactive	6.1 µM	inactive	–	inactive	CCN(CC)CC(O)Cn1ccc2c(c1=O)C(=O)OC2(C)C (stereo unspecified)	IC50 [12]: 90 µM
inactive	71.9 µM	inactive	inactive	inactive	CC1(C)OC(=O)c2c1ccn(CCCN1CCOCC1)c2=O	–
inactive	–	inactive	inactive	inactive	CC1(C)OC(=O)c2c1ccn(CCNc1ccc([N+](=O)[O-])cn1)c2=O	inhibition (Oryctolagus cuniculus [6]): 23.4%
inactive	6.1 µM	inactive	inactive	inactive	CC1(C)OC(=O)c2c1ccn(CC(O)CN1CCCCC1)c2=O (stereo unspecified)	–
